Legend:
[1] = tested on: primary Balb/C mouse splenocytes (CD8+ T cells); assay: Activated primary splenocytes: FACS for CD44, CD62L and live cells; format: cell-based
Method: FIGS. 7A-F. Formula C administration shifts effector CD8+ T cells to central memory cells. Primary Balb/C mouse splenocytes were grown in culture and activated by anti-CD3e and anti CD28 antibodies to shift them towards CD8+/CD4+ phenotype. Cells were then treated with Formula C (FIG. 7E), 2-DG (2-deoxyglucose, positive control) (FIG. 7C), or vehicle (FIG. 7B, FIG. 7D) for 24 hours followed by FACS analysis for CD44 and CD62L.
Spleens from the 2 BALB/C female mice (8.5 weeks old) were injected with cold PBS in a […] to obtain cell suspension, using a 27 g needle. The spleens were then crushed using the back of a 10 ml syringe. The suspension was passed through a 21 g needle and filtered using a 70 um cells strainer. The plate was washed once with 10 ml PBS and the solution was filtered as well. Cells were centrifuged for 10 min at 1200 rpm, 4° C. The pellet was broken on the grill and re-suspended in 10 ml AKC X1 lysis buffer (1:10 dilution of X10 stock in Ultra-Pure Water). After 5 min on ice, PBS was added to a final volume of 50 ml, and cells were centrifuged for 10 min at 1200 rpm, 4° C. Pellet was re-suspended in 10 ml PBS and washed twice. After washing, pellet was re-suspended in 20 ml DCs medium and passed through a 40 μm cell strainer. Cells were suspended to 3×10^6 ml with DC medium and supplemented with 1:1000 (100 Units/ml) hIL-2 and 1:1000 (1 ug/ml) anti-CD28.
The cells were seeded 1 ml/well in a 24-well plate precoated with 5 μg/ml 250 μl/well of anti-CD3e and carefully washed twice with 0.5 ml PBS (−/−), cells were added on the side of the wells to avoid washing away the antibody.
Splenocytes were plated at 10^6 cells/well in a 24-well plate coated with 5 μg/ml anti-CD3e with soluble anti CD28 2 μg/ml and IL-2 100 units/ml. […]
On the following day, cells were stained with: ghost dye 1 ul/sample (live/dead), and the following antibodies: CD62L, CD44, CD3, CD4, CD8 and analyzed by fluorescence-activated cell sorting (FACS).

[2] = tested on: skin of UVB-exposed SKH-1 mice; assay: UVB-exposed SKH-1 mouse AK/cSCC model: histology and IHC of immune cells in skin; format: in vivo
Method: The formulation ingredients for vehicle, 2.5%, and 5% Formula C ointment consisted of: 32% Gelucire44/14® (Gattefossé, Saint-Priest, France), and 68% combined Labrasol® (Gattefossé, Saint-Priest, France) with corresponding amount of Formula C (w/w). New ointments were prepared every 2 weeks. The 40% topical solution was prepared just prior to use by mixing (w/w) 60% propylene glycol (Sigma, St. Louis, MO, USA) with 40% Formula C.
UVB-induced skin damage was adopted from previous publications. Forty-eight SKH-1 hairless female mice were chronically exposed to 1.25 times the Minimal Erythemal Dose (MED) of UVB radiation. Lamp VL-6.M was used, irradiating at 312 nm with an intensity of 0.89 mW/cm2 (validated on Day 44) at a distance of 15 cm. Determination of UVB irradiation Minimal Erythemal Dose (MED) was performed prior to the beginning of the study. Animals were UVB irradiated for different duration (starting at 30 sec) and the presence of erythema was recorded 24 and 48 hours later. 1.25 times the MED of UVB irradiation was established to be equal to an exposure time of 5 min. Mice were UVB irradiated for 4-5 min at each irradiation session during the 16 weeks of pre-treatment disease induction. Prior to every irradiation session, the lamp was turned on for 5 min to ensure it reaches its maximal intensity. The irradiation schedule was five times a week for two weeks, one week off, and then three times a week through week 16. By that time, more than 60% of the animals had developed at least one SCC lesion. Three days after the final irradiation dose, the mice were randomly assigned to 1 of 4 treatment groups (N=12 mice/group), with similar tumor burden distribution between groups, and a 50-day treatment phase started. The 6 cm^2 (2×3 cm) treatment area was marked on the back of the mice with a black eight points rectangle tattoo. Five spare mice with the highest tumor burden were excluded from the main study. Treatment groups included: vehicle, 2.5% or 5% Formula C ointment, 50 μl of which was applied once-daily for 50 days, or 50 μl of 40% Formula C topical solution applied once-daily for the first 5 days of every three-week cycle (total of three treatment cycles). Following administration, each animal was placed in individual cage without bedding for 1.5 hours, until the ointment was absorbed.
Histopathological analysis and IHC was performed according to standard protocols. Primary antibodies used: Rabbit anti-CD3 (SP7), rabbit anti-F4/80 (SB-M3072, SB-M4152, Nordic Biosite, Täby, Sweden), mouse anti-Langerin/CD207 (DDX0361, Dendritics, Lyon, France). A polymer system was used as a secondary antibody (KDB-10046 and KDB-10007, Nordic Biosite, Täby, Sweden). Semi-quantitative analysis was done in a blinded manner by a single experienced pathologist scoring ×40 high power fields, 7 different fields per slide.
Statistical analysis was carried out using Graphpad Prism version 5.03 (Graphpad Software, San Diego, CA).

[3] = tested on: macrophages in CT26 tumors; assay: FACS of CT26 tumors for macrophage markers MHCII and CD206 (M2 to M1 shift); format: in vivo, mouse; conditions: 150 mg/kg, day 20
Method: (§1) FIG. 6B. Formula C administration shifts macrophages in vivo from pro-tumor (M2) macrophages to antitumor (M1) macrophages. CT26 tumors from Formula C or vehicle-treated Balb/C mice with CT26 mouse colorectal cancer was analyzed for MHCII marker by FACS. Dark color: Vehicle treated CT26 tumors from Balb/C mice (day 20). Light color: Formula C (150 mg/kg) treated CT26 tumors from Balb/C mice (day 20).
as §1, with “6C.” for “6B.”, “CD206.” for “MHCII marker by FACS.”
(§2) Colorectal cancer was induced in Balb/C mice using CT26 mouse colorectal cancer cells. Formula C was administered SC with esterase-inhibitor BNPP (IP).
Pro-tumor M2 Macrophages are characterized by low MHCII and high CD206. In contrast, anti-tumor M1 Macrophages are characterized by high MHCII and low CD206. CT26 tumors from Formula C or vehicle-treated Balb/C mice with CT26 mouse colorectal cancer were analyzed for MHCII (FIG. 6B) and CD206 (FIG. 6C) levels 20 days after treatment started.

[4] = tested on: THP-1 human monocytes differentiated to macrophages; assay: IL-1β secretion from LPS-stimulated THP-1-derived macrophages (ELISA); format: cell-based; conditions: PMA-differentiated, ELISA of culture medium
Method: FIG. 4. Formula C stimulates IL-1β secretion in activated human macrophages in vitro. THP-1 human monocytes were differentiated to mature macrophages and stimulated with LPS (Lipopolysaccharide) followed by Formula C treatment. Secreted IL-1β was analyzed in the culture medium by ELISA.
The human monocyte cell line, THP-1, was grown in 10% FCS in RPMI medium. Cells were plated in 24 well plate, 5*10^6 cells/well and were differentiated to macrophages in the presence of 0.5 uM PMA (phorbol 12-myristate 13-acetate) for 24 hr. Media was replaced to contain LPS (10 ug/mL), 24 hr stimulation. ATP was added for 2 hours. Supernatants were collected and assayed by ELISA for the presence of IL-1β.

[5] = tested on: mouse bone marrow-derived macrophages (BMDM); assay: IL-1β secretion and viability in primary bone marrow-derived macrophages; format: cell-based; conditions: BALB/C or C57BL BMDM
Method: BALB/C mouse bone marrow-derived macrophages (BMDM) or C57BL mouse bone marrow-derived macrophages were seeded at 3×10^4 cells/well in 96 well plates. The following day, cells were stimulated with interferon-gamma (IFNγ) overnight 50 ng/ml. Then Ultra-pure LPS (100 ng/ml) was added for 4 hours, followed by compound treatment for overnight, except for ATP (all compounds were added on top); ATP for 40 min. ELISA was performed on supernatants for mouse IL-1β detection. ATP and 2-DG were used as positive controls. No signal without IFN-γ even when seeded at 100,000 cells per well.

B16-F10 melanoma mice = assay: Ear inflammation score in the mouse B16-F10 melanoma model; format: in vivo; conditions: scale 0-4, topical
Method: (§3) Female C57Bl/6 mice at 8 weeks of age were purchased from Harlan, Jerusalem, Israel. The animals were housed (6 or 7/cage) under controlled conditions (temperature, light, humidity) and given food and water ad libitum. After 14 days of acclimatization, the animals were inoculated with 0.25*10^6 B16-F10 melanoma cells/mouse in 30 μl PBS under the skin of the right ear of each mouse.
(§4) The mice were inoculated with B16-F10 melanoma cells and divided randomly into […] (9 mice each): a) B16-F10 inoculated, untreated; and b) B16-F10 inoculated, Formula C (50% v/v in olive oil) treated
(§5) The treatment was initiated when the tumors reached the target volume of approximately 1 mm^3. Drug was topically administered to the area of the tumor daily for 18 days.
Inflammation was graded on a scale of 0-4 as: 0 (absence of inflammation), 1 (redness), 2 (tissue inflammation), 3 (pronounced tissue inflammation), and 4 (damage to the ear).

[6] = tested on: CT26 mouse colorectal cancer cells; assay: CT26 syngeneic colorectal cancer model: tumor volume; format: in vivo; conditions: Balb/C mice, SC with esterase-inhibitor BNPP (IP)
Method: as §2

B16-F10 melanoma cells = assay: Topical treatment in the mouse B16-F10 melanoma model: tumor volume; format: in vivo; conditions: 50% v/v in olive oil
Method: Mouse melanoma (B16-F10) cells were used. Mouse B16-F10 melanoma cells were maintained in DMEM. Media was supplemented with 10% heat-inactivated FCS, penicillin (100 U/ml), streptomycin (100 μg/ml), Sodium pyruvate (2 mM), and L-glutamine (4 mM). Confluent cultures were washed with PBS, detached with trypsin (0.25%), centrifuged, and subcultured in 96-well microtiter test plates.
as §3, §4, §5

[7] = high dose (40%) group, trending also at lower doses
[8] = topical 2.5%, 5% ointment or 40% solution, 50-day treatment phase

SMILES: O=CC[C@@H](O)[C@H](O)[C@H](O)CO [Formula 2-DG, 2-deoxyglucose, reference compound]
- percentage of live cells ([1]; stimulated splenocytes, 24 hours treatment, ghost dye): Neither Formula C nor 2-DG treatment significantly affected the percentage of live cells

SMILES: CC/C=C\CC1C(=O)CCC1CC(=O)Oc1cccc2cccnc12 (stereo not drawn) [Formula C]
- CD3+ T cells in skin versus vehicle-treated [2, 7]: statistically-significant increase
- Langerin+ dendritic cells in skin versus vehicle-treated [2, 7]: statistically-significant increase
- mast cells in skin (toluidine blue) versus vehicle-treated [2, 8]: statistically significant, dose-related increase
- overall inflammation (H&E staining) versus vehicle-treated [2, 8]: without apparent difference
- F4/80 general staining for macrophages ([2]; topical, 50-day treatment phase, data not shown): no change
- CD206 levels versus vehicle-treated [3]: lower CD206 levels
- MHCII levels versus vehicle-treated [3]: higher MHCII levels
- IL-1β secretion [4]: induced IL-1β secretion
- CD44 and CD62L expression (shift from effector to memory cells) versus vehicle-treated ([1]; anti-CD3e/anti-CD28 stimulated splenocytes, 24 hours treatment): higher CD44 and higher CD62L expression
- percentage of live cells ([1]; female, BALB/c, mouse, 24 h): Neither Formula C nor 2-DG treatment significantly affected the percentage of live cells
- IL-1β secretion ([5]; IFNγ then LPS, compound overnight, ELISA): dose-dependently elicited IL-1β secretion
- cell viability ([5]; even at high dosage): little effect on cell viability
- average inflammation score (B16-F10 melanoma mice; before the 18th day of treatment): over 3
- average inflammation score (B16-F10 melanoma mice; by about the 15th day of treatment): about 3
- tumor volume [6]: decreased tumor volume
- tumor volume compared with untreated group (B16-F10 melanoma cells; topical daily for 18 days, after day 11): significantly lower than the tumor volume in the untreated group
- tumor growth (B16-F10 melanoma cells; topical daily, C57Bl/6 mice, right ear, first 11 days): no tumor growth for 11 days

Source: US12083111B2, “Use of hexokinase 2/mitochondria-detaching compounds for activating immune responses” (Vidac Pharma Ltd., priority 2016, dated 2024)
